In brackets after ≈: the same amount, converted by molar mass. Positions of bridges follow the written chain, without caps; N, C: chain ends. Non-standard residues stand in square brackets, D forms with d. Residues, ends and D or L forms follow the SMILES beside them. *: point of attachment. X1 = CC[C@H](C)CCCCC(=O)*; Dab = NCC[C@H](N)C(=O)O
Assays:
Staphylococcus aureus [1] = experiment: Antimicrobial activity against Staphylococcus aureus ATCC 25923 assessed as growth inhibition after 14 to 16 hrs by CLSI based broth dilution method; type: functional; details: time 14-16 hrs
Enterococcus faecium [2] = experiment: Antimicrobial activity against Vancomycin-resistant Enterococcus faecium ATCC 51559 assessed as growth inhibition after 14 to 16 hrs by CLSI based broth dilution method; type: functional; details: time 14-16 hrs
Staphylococcus aureus [3] = experiment: Antimicrobial activity against methicillin-resistant Staphylococcus aureus ATCC 33591 assessed as growth inhibition after 14 to 16 hrs by CLSI based broth dilution method; type: functional; details: time 14-16 hrs
[4] = Cytotoxicity against mouse LLC cells assessed as reduction in cell viability; type: toxicity, cell-based; details: LLC (3LL) cells
[5] = Hemolytic activity in human RBC at 50 ug/ml; type: toxicity, cell-based, Erythrocyte; details: red blood cells (erythrocytes), at 50 µg/mL, read-out: Activity
Enterococcus faecium [6] = experiment: Antimicrobial activity against Enterococcus faecium assessed as growth inhibition after 14 to 16 hrs by CLSI based broth dilution method; type: functional; details: time 14-16 hrs

SMILES | MIC99 (Staphylococcus aureus [1]) | MIC99 (Enterococcus faecium [2]) | MIC99 (Staphylococcus aureus [3]) | IC50 [4] | hemolysis at 50 ug/ml [5] | MIC99 (Enterococcus faecium [6])
C[C@H](CCC(=O)NCc1cn(CCCn2cc(CNC(=O)CC[C@@H](C)[C@H]3CC[C@H]4[C@@H]5[C@H](OC(=O)CN)C[C@@H]6C[C@H](OC(=O)CN)CC[C@]6(C)[C@H]5C[C@H](OC(=O)CN)[C@]34C)nn2)nn1)[C@H]1CC[C@H]2[C@@H]3[C@H](OC(=O)CN)C[C@@H]4C[C@H](OC(=O)CN)CC[C@]4(C)[C@H]3C[C@H](OC(=O)CN)[C@]12C.Cl.Cl.Cl.Cl.Cl.Cl | 128 µg/mL | 16 µg/mL | 32 µg/mL | 131 µg/mL | 9% | 32 µg/mL
C[C@H](CCC(=O)NCc1cn(CCCCCn2cc(CNC(=O)CC[C@@H](C)[C@H]3CC[C@H]4[C@@H]5[C@H](OC(=O)CN)C[C@@H]6C[C@H](OC(=O)CN)CC[C@]6(C)[C@H]5C[C@H](OC(=O)CN)[C@]34C)nn2)nn1)[C@H]1CC[C@H]2[C@@H]3[C@H](OC(=O)CN)C[C@@H]4C[C@H](OC(=O)CN)CC[C@]4(C)[C@H]3C[C@H](OC(=O)CN)[C@]12C.Cl.Cl.Cl.Cl.Cl.Cl | 128 µg/mL | 16 µg/mL | 64 µg/mL | 153 µg/mL | 10% | 32 µg/mL
CC(C)C(N)C(=O)NCC(=O)O[C@@H]1CC[C@@]2(C)[C@@H](C1)C[C@@H](OC(=O)CNC(=O)C(N)C(C)C)[C@@H]1[C@@H]2C[C@H](OC(=O)CNC(=O)C(N)C(C)C)[C@]2(C)[C@@H]([C@H](C)CCC(=O)NCc3cn(CCCCn4cc(CNC(=O)CC[C@@H](C)[C@H]5CC[C@H]6[C@@H]7[C@H](OC(=O)CNC(=O)C(N)C(C)C)C[C@@H]8C[C@H](OC(=O)CNC(=O)C(N)C(C)C)CC[C@]8(C)[C@H]7C[C@H](OC(=O)CNC(=O)C(N)C(C)C)[C@]56C)nn4)nn3)CC[C@@H]12.Cl.Cl.Cl.Cl.Cl.Cl (some centres not stated) | 128 µg/mL | 4 µg/mL | 32 µg/mL | 52 µg/mL | 50% | 8 µg/mL
C[C@H](CCC(=O)NCc1cn(CCCCn2cc(CNC(=O)CC[C@@H](C)[C@H]3CC[C@H]4[C@@H]5[C@H](OC(=O)CN)C[C@@H]6C[C@H](OC(=O)CN)CC[C@]6(C)[C@H]5C[C@H](OC(=O)CN)[C@]34C)nn2)nn1)[C@H]1CC[C@H]2[C@@H]3[C@H](OC(=O)CN)C[C@@H]4C[C@H](OC(=O)CN)CC[C@]4(C)[C@H]3C[C@H](OC(=O)CN)[C@]12C.Cl.Cl.Cl.Cl.Cl.Cl | 128 µg/mL | 32 µg/mL | 64 µg/mL | 211 µg/mL | 2% | 64 µg/mL
CC(C)C(N)C(=O)NCC(=O)O[C@@H]1CC[C@@]2(C)[C@@H](C1)C[C@@H](OC(=O)CNC(=O)C(N)C(C)C)[C@@H]1[C@@H]2C[C@H](OC(=O)CNC(=O)C(N)C(C)C)[C@]2(C)[C@@H]([C@H](C)CCC(=O)NCc3cn(CCCCCCn4cc(CNC(=O)CC[C@@H](C)[C@H]5CC[C@H]6[C@@H]7[C@H](OC(=O)CNC(=O)C(N)C(C)C)C[C@@H]8C[C@H](OC(=O)CNC(=O)C(N)C(C)C)CC[C@]8(C)[C@H]7C[C@H](OC(=O)CNC(=O)C(N)C(C)C)[C@]56C)nn4)nn3)CC[C@@H]12.Cl.Cl.Cl.Cl.Cl.Cl (some centres not stated) | 128 µg/mL | 4 µg/mL | 32 µg/mL | 69 µg/mL | 57% | 16 µg/mL
CC(C)C(N)C(=O)NCC(=O)O[C@@H]1CC[C@@]2(C)[C@@H](C1)C[C@@H](OC(=O)CNC(=O)C(N)C(C)C)[C@@H]1[C@@H]2C[C@H](OC(=O)CNC(=O)C(N)C(C)C)[C@]2(C)[C@@H]([C@H](C)CCC(=O)NCc3cn(CCCCCn4cc(CNC(=O)CC[C@@H](C)[C@H]5CC[C@H]6[C@@H]7[C@H](OC(=O)CNC(=O)C(N)C(C)C)C[C@@H]8C[C@H](OC(=O)CNC(=O)C(N)C(C)C)CC[C@]8(C)[C@H]7C[C@H](OC(=O)CNC(=O)C(N)C(C)C)[C@]56C)nn4)nn3)CC[C@@H]12.Cl.Cl.Cl.Cl.Cl.Cl (some centres not stated) | 128 µg/mL | 4 µg/mL | 32 µg/mL | 96 µg/mL | 36% | 16 µg/mL
C[C@H](CCC(=O)NCc1cn(CCCCCCn2cc(CNC(=O)CC[C@@H](C)[C@H]3CC[C@H]4[C@@H]5[C@H](OC(=O)CN)C[C@@H]6C[C@H](OC(=O)CN)CC[C@]6(C)[C@H]5C[C@H](OC(=O)CN)[C@]34C)nn2)nn1)[C@H]1CC[C@H]2[C@@H]3[C@H](OC(=O)CN)C[C@@H]4C[C@H](OC(=O)CN)CC[C@]4(C)[C@H]3C[C@H](OC(=O)CN)[C@]12C.Cl.Cl.Cl.Cl.Cl.Cl | 128 µg/mL | 8 µg/mL | 32 µg/mL | 66 µg/mL | 58% | 16 µg/mL
CC(C)C(N)C(=O)NCC(=O)O[C@@H]1CC[C@@]2(C)[C@@H](C1)C[C@@H](OC(=O)CNC(=O)C(N)C(C)C)[C@@H]1[C@@H]2C[C@H](OC(=O)CNC(=O)C(N)C(C)C)[C@]2(C)[C@@H]([C@H](C)CCC(=O)OCc3ccccc3)CC[C@@H]12 (some centres not stated) | 16 µg/mL (≈ 16.5 µM) | 2 µg/mL (≈ 2.07 µM) | 4 µg/mL (≈ 4.14 µM) | 40 µg/mL | 95% | 8 µg/mL (≈ 8.27 µM)
CC[C@H](C)CCCCC(=O)N[C@@H](CCN)C(=O)N[C@H](C(=O)N[C@@H](CCN)C(=O)N[C@H]1CCNC(=O)[C@H]([C@@H](C)O)NC(=O)[C@H](CCN)NC(=O)[C@H](CCN)NC(=O)[C@H](CC(C)C)NC(=O)[C@@H](Cc2ccccc2)NC(=O)[C@H](CCN)NC1=O)[C@@H](C)O (X1-[Dab]T[Dab][Dab][Dab][dF]L[Dab][Dab]T; lactam 4-C) | 128 µg/mL (≈ 106 µM) | > 128 µg/mL | 32 µg/mL (≈ 26.6 µM) | – | – | > 128 µg/mL
NC[C@@H]1O[C@H](O[C@H]2[C@@H](O)[C@H](O[C@@H]3[C@@H](O)[C@H](N)C[C@H](N)[C@H]3O[C@H]3O[C@H](CN)[C@@H](O)[C@H](O)[C@H]3N)O[C@@H]2CO)[C@H](N)[C@@H](O)[C@@H]1O [FRAMYCETIN] | 16 µg/mL (≈ 26 µM) | > 128 µg/mL | > 128 µg/mL | > 1000 µM | – | 16 µg/mL (≈ 26 µM)
